PubChem BioAssay AID1918995 (Molecular Pharmacology Branch, DTP, NCI, 2023)

Tested on: 324938-238-R-J1-PDC complex spheroid growth, % test/control
Assay: Anticancer human tumor 324938-238-R-J1-PDC patient-derived bladder carcinoma cell line growth inhibition [AhR]
Conditions: for IC50: curve of first compound; for viability, T/C: stronger effect = lower value
Method in brief: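 Agents were dosed in half-log steps down from roughly clinical Cmax, or from 10 microM where Cmax was unknown, alone and with AhR antagonists. Read-out: percent test/control growth of tumor spheroids containing HUVEC and MSC stromal cells.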
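Note: spheroids exposed to agents for seven days before viability read.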

CC1COCCN1c1cc(C2(S(C)(=N)=O)CC2)nc(-c2ccnc3[nH]ccc23)n1 (stereo not given) + Cc1ccccc1N=Nc1ccc(NC(=O)c2ccnn2C)c(C)c1
IC50 (second compound 0.1 µM): 5.95 µM
IC50 (second compound 0.316 µM): 4.66 µM
IC50 (second compound 1 µM): 3.88 µM
IC50 (second compound 3.16 µM): 4.6 µM
IC50 (second compound 10 µM): 5.12 µM
viability, T/C (second compound 0.1 µM, first compound 0.0316 µM): 97.8%
viability, T/C (second compound 0.1 µM, first compound 0.1 µM): 96.8%
viability, T/C (second compound 0.1 µM, first compound 0.316 µM): 98.3%
viability, T/C (second compound 0.1 µM, first compound 1 µM): 90.4%
viability, T/C (second compound 0.1 µM, first compound 3.16 µM): 68.5%
viability, T/C (second compound 0.1 µM, first compound 10 µM): 34.9%
viability, T/C (second compound 0.316 µM, first compound 0.0316 µM): 84.1%
viability, T/C (second compound 0.316 µM, first compound 0.1 µM): 89.5%
viability, T/C (second compound 0.316 µM, first compound 0.316 µM): 90.3%
viability, T/C (second compound 0.316 µM, first compound 1 µM): 80.2%
viability, T/C (second compound 0.316 µM, first compound 3.16 µM): 59%
viability, T/C (second compound 0.316 µM, first compound 10 µM): 32.8%
viability, T/C (second compound 1 µM, first compound 0.0316 µM): 91.3%
viability, T/C (second compound 1 µM, first compound 0.1 µM): 83.5%
viability, T/C (second compound 1 µM, first compound 0.316 µM): 95%
viability, T/C (second compound 1 µM, first compound 1 µM): 84.6%
viability, T/C (second compound 1 µM, first compound 3.16 µM): 53.4%
viability, T/C (second compound 1 µM, first compound 10 µM): 34.8%
viability, T/C (second compound 3.16 µM, first compound 0.0316 µM): 72.7%
viability, T/C (second compound 3.16 µM, first compound 0.1 µM): 78.2%
viability, T/C (second compound 3.16 µM, first compound 0.316 µM): 76.5%
viability, T/C (second compound 3.16 µM, first compound 1 µM): 68.6%
viability, T/C (second compound 3.16 µM, first compound 3.16 µM): 57.3%
viability, T/C (second compound 3.16 µM, first compound 10 µM): 33.2%
viability, T/C (second compound 10 µM, first compound 0.0316 µM): 73.8%
viability, T/C (second compound 10 µM, first compound 0.1 µM): 69.3%
viability, T/C (second compound 10 µM, first compound 0.316 µM): 68.7%
viability, T/C (second compound 10 µM, first compound 1 µM): 66%
viability, T/C (second compound 10 µM, first compound 3.16 µM): 56.5%
viability, T/C (second compound 10 µM, first compound 10 µM): 40.8%
